Assay: recombinant UMI read abundance after kanamycin selection (control-corrected) (log10(CPM+1)); higher = more efficient recombination; extreme values may be limits of the assay; sequences stand for … in AGTGCAGAGAAAATCGGCCAGTTTTCTCTGCCTGCAGTCCGCATGCCGTGGGACCCCTTGGGTTCTAACCTGTTGCCTAGATTTATGCAGCGGACTGCCTTTCTCCCAAAGTGATAAACCGG…AGGTTGGTTTCACT; site = the 11-nt donor
Outline: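 Two replicates each of selected and unselected plating were used in this pooled Escherichia coli screen of donor and donor-binding-loop pairs for the IS621 bridge recombinase. Selection was with IPTG (0.07 mM) and kanamycin. Counts of recombinant UMIs, amplified across the donor–target junction, were converted to CPM, averaged, scaled by control-derived factors and reported as log10(CPM+1).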
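Note: IS621 bridge recombinase in Escherichia coli cells against a fixed T5 target plasmid.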

Row | Sequence | recombinant UMI read abundance (log10)
1 | CGTACATCATGGACCGGTTTTCCCGGTAATCCGTATTTGCT (site CGATCATCTAG) | 0
2 | CTCTATACATGGACCGGTTTTCCCGGTAATCCGTATTTGCT (site CTCTATACTAG) | 2.08
3 | CGAACGACATGGACCGGTTTTCCCGGTAATCCGTATTTGTT (site CGAGCGACTAA) | 0.0306
4 | CCTAATGCATGGACCGGTTTTCCCGGTAATCCGTATTTGGC (site CCTAATACTGC) | 0
5 | TCCACCGCATGGACCGGTTTTCCCGGTAATCCGTATTTGCG (site TCCACCCCTCG) | 0.0195
6 | CTGCCGACATGGACCGGTTTTCCCGGTAATCCGTATTTGCG (site CTGCCGACTCG) | 1.83
7 | GGCTAGACATGGACCGGTTTTCCCGGTAATCCGTATTTGCC (site GGTTAGACTGG) | 0
8 | GCTAGCCCATGGACCGGTTTTCCCGGTAATCCGTATTTGAT (site GCTTGCCCTAT) | 0.00951
9 | CGGAATCCATGGACCGGTTTTCCCGGTAATCCGTATTTGTT (site GGGAATCCTAT) | 0
10 | CGCCGCACATGGACCGGTTTTCCCGGTAATCCGTATTTGCT (site CGCCGCACTAG) | 2.18
11 | CGATCATCATGGACCGGTTTTCCCGGTAATCCGTATTTGCT (site AGAGCATCTAG) | 0
12 | GGTCAGCCATGGACCGGTTTTCCCGGTAATCCGTATTTGGG (site GGTCAGCCTCC) | 0.00726
13 | AACCGTCCATGGACCGGTTTTCCCGGTAATCCGTATTTGAT (site AACAGTCCTAT) | 0.0027
14 | CGTTTGGCATGGACCGGTTTTCCCGGTAATCCGTATTTGCT (site CATTTGGCTAG) | 0
15 | CAAGGCGCATGGACCGGTTTTCCCGGTAATCCGTATTTGGA (site CAAGGCGCTTC) | 1.42
16 | TCCACCGCATGGACCGGTTTTCCCGGTAATCCGTATTTGCG (site TCCAGCGCTCG) | 0.0215

Row | Sequence | recombinant UMI read abundance (log10)
17 | GTATAGACATGGACCGGTTTTCCCGGTAATCCGTATTTGCC (site GTATAGACTGG) | 2.83
18 | GGCGATACATGGACCGGTTTTCCCGGTAATCCGTATTTGCT (site GGCGATACTAG) | 1.5
19 | AAAGTATCATGGACCGGTTTTCCCGGTAATCCGTATTTGCT (site AAAGTATCTAG) | 2.73
20 | CGTTAGACATGGACCGGTTTTCCCGGTAATCCGTATTTGAG (site CGTTAGACTCC) | 0.374
21 | GGACCATCATGGACCGGTTTTCCCGGTAATCCGTATTTGTC (site GGACCATCTGA) | 2.27
22 | TCCTTGACATGGACCGGTTTTCCCGGTAATCCGTATTTGCT (site TTCTTGACTAG) | 0
23 | CCCCGCACATGGACCGGTTTTCCCGGTAATCCGTATTTGTA (site CCCCACACTTA) | 0.48
24 | GTTAGAACATGGACCGGTTTTCCCGGTAATCCGTATTTGGC (site CTTAGAACTGC) | 0
25 | TTCCTCACATGGACCGGTTTTCCCGGTAATCCGTATTTGCT (site TTCCTCACTAG) | 0.293
26 | GTTGTGCCATGGACCGGTTTTCCCGGTAATCCGTATTTGGT (site GTTGTCCCTAC) | 0.0044
27 | TTAGTATCATGGACCGGTTTTCCCGGTAATCCGTATTTGTC (site TTAGTATCTGA) | 1.77
28 | TCAAACTCATGGACCGGTTTTCCCGGTAATCCGTATTTGCA (site TCAGACTCTTG) | 0
29 | AGTACTACATGGACCGGTTTTCCCGGTAATCCGTATTTGAC (site AGGACTACTGT) | 1.71
30 | TAGATTACATGGACCGGTTTTCCCGGTAATCCGTATTTGCA (site TAGACTACTTG) | 0.98
31 | AGTAAGACATGGACCGGTTTTCCCGGTAATCCGTATTTGCA (site AGGAAGACTTG) | 1.31
32 | CAATGCTCATGGACCGGTTTTCCCGGTAATCCGTATTTGAA (site CTATGCTCTTT) | 0.217

— the supplement of paper PMC11208160
